In patent EP0549006A2, “Ammonium and phosphonium salts and their use as biocides” (FMC CORPORATION (UK) LIMITED, priority 1991, dated 1993):

Assays:
Alcaligenes dentrificans = assay: Bacterial minimal inhibiting concentration (MIC) in liquid culture, turbidity evaluation; format: cell-based; conditions: strain D: Alcaligenes dentrificans; Caso Peptone Bouillon, 24 hours at 30 °C; tested at 10, 30, 60 and 100 mg/l
[1] = Solubility of the isolated product (water, alcohol); format: physicochemical
Enterobacter aerogenes = assay: Bacterial minimal inhibiting concentration (MIC) in liquid culture, turbidity evaluation; format: cell-based; conditions: strain C: Enterobacter aerogenes, Caso Peptone Bouillon, 24 hours at 30 °C, tested at 10, 30, 60 and 100 mg/l
bacterial mixed culture = format: cell-based; conditions: 24 hours at 30 °C in Tyrode solution, growth on Caso Peptone plates; for Effect after 24 h 10: 10 mg/l; for Effect after 24 h 30: 30 mg/l; for Effect after 24 h 60: 60 mg/l
Bacillus subtilis = assay: Bacterial minimal inhibiting concentration (MIC) in liquid culture, turbidity evaluation; format: cell-based; conditions: strain A: Bacillus subtilis; Caso Peptone Bouillon, 24 hours at 30 °C; tested at 10, 30, 60 and 100 mg/l
Serratia marcescens = assay: as above; format: cell-based; conditions: strain B: Serratia marcescens; Caso Peptone Bouillon, 24 hours at 30 °C; tested at 10, 30, 60 and 100 mg/l
Pseudomonas fluorescens = assay: as above; format: cell-based; conditions: strain F: Pseudomonas fluorescens; Caso Peptone Bouillon, 24 hours at 30 °C; tested at 10, 30, 60 and 100 mg/l
Proteus vulgaris = assay: as above; format: cell-based; conditions: strain E: Proteus vulgaris; Caso Peptone Bouillon, 24 hours at 30 °C; tested at 10, 30, 60 and 100 mg/l

Compound	MIC (Alcaligenes dentrificans)	solubility in water [1]	minimal inhibiting concentration C (Enterobacter aerogenes)	Effect after 24 h 10 (bacterial mixed culture)	Effect after 24 h 30 (bacterial mixed culture)	Effect after 24 h 60 (bacterial mixed culture)	MIC (Bacillus subtilis)	MIC (Serratia marcescens)	MIC (Pseudomonas fluorescens)	MIC (Proteus vulgaris)	minimal inhibiting concentration D (Alcaligenes dentrificans)	solubility in alcohol ([1]; alcohol)	Effect after 24 h 100 mg/l (bacterial mixed culture)	minimal inhibiting concentration A (Bacillus subtilis)	minimal inhibiting concentration B (Serratia marcescens)	minimal inhibiting concentration F (Pseudomonas fluorescens)	minimal inhibiting concentration E (Proteus vulgaris)	MIC (Enterobacter aerogenes; Klebsiella aerogenes, 24 h)	solubility ([1]; in water)
CCCCCCCCCCCCCC[P+](CCCC)(CCCC)CCCC [Example 2, [(n-C4H9)3P n-C14H29]^+HSO4-]	10 µg/mL	optionally miscible with water	10 µg/mL	-	-	-	10 µg/mL	30 µg/mL	30 µg/mL	10 µg/mL									
CCCCCCCCCCCCCC[P+](CCCC)(CCCC)CCCC [Example 3, [(n-C4H9)3P n-C14H29]^+NO3^-]		difficultly soluble in water	10 µg/mL	(-) (1-10 colonies, bacteria killed for the most part)	(-) (1-10 colonies, bacteria killed for the most part)	-					10 µg/mL	readily soluble in alcohol	-	10 µg/mL	30 µg/mL	30 µg/mL	10 µg/mL		
CCCCCCCCCCCCCC[N+](C)(C)Cc1ccccc1 [Example 5, [(CH3)2N(CH2C6H5)n-C14H29]^+[S2P(O^iC3H7)2]^-]	< 100 µg/mL	difficultly soluble in water			(-) (1-10 colonies, bacteria killed for the most part)	-	< 100 µg/mL	< 100 µg/mL	< 100 µg/mL	< 100 µg/mL			-					< 100 µg/mL	
CCCCCCCCCCCCCC[P+](CCCC)(CCCC)CCCC [Example 6, ([n-C4H9)3P n-C14H29]^+[B(C6H5)4]^-]																			≤ 20 µg/mL
CCCCCCCCCCCCCC[P+](CCCC)(CCCC)CCCC [Example 7, [(n-C4H9)3P n-C14H29]^+[lO4]^-]		difficultly soluble in water	30 µg/mL	(-) (1-10 colonies, bacteria killed for the most part)	-	-					10 µg/mL		-	10 µg/mL	30 µg/mL	30 µg/mL	10 µg/mL		
[(CH3)2N(CH2C6H5) n-C14H29]3^+[Fe(CN)6]^3- [Example 4]			<100 µg/mL								<100 µg/mL			<100 µg/mL	<100 µg/mL	<100 µg/mL	<100 µg/mL		
[(n-C4H9)3P n-C14H29]^+(ICIBr]^- [Example 9]			30 µg/mL	-	-	-					10 µg/mL			10 µg/mL	30 µg/mL	30 µg/mL	10 µg/mL		
[(n-C4H9)3P n-C, 4H29]^+[ICI2]^- [Example 8]			30 µg/mL	-	-	-					10 µg/mL			10 µg/mL	30 µg/mL	30 µg/mL	10 µg/mL		
[(n-C4H9)3P n-G14H29]^+SCN^- [Example 1]			10 µg/mL	-	-	-					10 µg/mL		-	10 µg/mL	30 µg/mL	30 µg/mL	10 µg/mL		
